Assay results published in ChEMBL document CHEMBL1134178, “Cytotoxic Michael-type amine adducts of alpha-methylene lactones alantolactone and isoalantolactone” (Bioorg Med Chem Lett, 2001).
One block for each molecule: values may come before it.

Key:
K562 [1] = assay: In vitro inhibitory activity against K562 human leukemia cell line; format: functional, cell-based
COLO = assay: Inhibitory activity against COLO skin melanoma cell line; format: functional; conditions: Homo sapiens, read-out: ID50 (the source's name)
A549 = assay: Inhibitory activity against A549 lung cancer cell line; format: functional; conditions: Homo sapiens, read-out: ID50 (the source's name)
K562 [2] = assay: Effect on cell cycle distribution of K562 cells following treatment of 10 x IC50 for 16 hours and percentage of apoptotic cells (cells with DNA content less than cells in G1 phase) was reported.; format: functional, Homo sapiens
P388 = assay: Inhibitory activity against P388 mouse leukemia cell line; format: functional; conditions: read-out: ID50 (the source's name)
NCI-H460 = assay: Inhibitory activity against H460 lung cancer cell line; format: functional; conditions: Homo sapiens, read-out: ID50 (the source's name)
WiDr = assay: Inhibitory activity against WiDR colon adenocarcinoma cell line; format: functional; conditions: Homo sapiens, read-out: ID50 (the source's name)
MCF7 = assay: Inhibitory activity against MCF-7 breast cancer cell line; format: functional; conditions: Homo sapiens, read-out: ID50 (the source's name)
[3] = Inhibitory activity against FF1 normal skin cells; format: functional; conditions: Homo sapiens, read-out: ID50 (the source's name)
K562 [4] = assay: Effect on cell cycle distribution of K562 cells following treatment of 10 x IC50 for 16 hours and percentage of cells in G2/M phase was reported.; format: functional, Homo sapiens
K562 [5] = assay: Effect on cell cycle distribution of K562 cells following treatment of 10 x IC50 for 16 hours and c.v. value was reported.; format: functional, Homo sapiens
K562 [6] = assay: Evaluated for the effect on cell cycle distribution of K562 cells following treatment of 10 x IC50 for 16 hours and percentage of cells in G1 phase was reported.; format: functional, Homo sapiens
BT-20 = assay: Inhibitory activity against BT20 breast cancer cell line; format: functional; conditions: Homo sapiens, read-out: ID50 (the source's name)
NCI-H520 = assay: Inhibitory activity against H520 lung cancer cell line; format: functional; conditions: Homo sapiens, read-out: ID50 (the source's name)
K562 [7] = assay: Inhibitory activity against K562 human leukemia cell line; format: functional; conditions: read-out: ID50 (the source's name)
K562 [8] = assay: Effect on cell cycle distribution of K562 cells following treatment of 10 x IC50 for 16 hours and percentage of cells in S phase was reported.; format: functional, Homo sapiens

IC50 (K562 [1]): 4000 nM
Structure (SMILES): C=C1CCC[C@]2(C)C[C@H]3OC(=O)[C@@H](CN(C)CCO)[C@H]3C[C@@H]12

IC50 (K562 [1]): 5000 nM
Structure (SMILES): C=C1CCC[C@]2(C)C[C@H]3OC(=O)[C@@H](CN4CCCCC4)[C@H]3C[C@@H]12

IC50 (K562 [1]): 5000 nM
Structure (SMILES): C=C1CCC[C@]2(C)C[C@H]3OC(=O)[C@@H](CN4CCCC4)[C@H]3C[C@@H]12

IC50 (K562 [1]): 5000 nM
Structure (SMILES): C=C1CCC[C@]2(C)C[C@H]3OC(=O)[C@@H](CN4CCOCC4)[C@H]3C[C@@H]12

IC50 (COLO): 3500 nM
IC50 (A549): 800 nM
IC50 (P388): 300 nM
IC50 (NCI-H460): 600 nM
IC50 (WiDr): 1500 nM
IC50 (MCF7): 800 nM
IC50 (BT-20): 1200 nM
IC50 (K562 [1]): 2000 nM
IC50 (NCI-H520): 900 nM
IC50 (K562 [7]): 2000 nM
Structure (SMILES): C=C1CCC[C@]2(C)C[C@H]3OC(=O)[C@@H](CN(CC)CC)[C@H]3C[C@@H]12
Activity (K562 [2]): 4.4%
IC50 [3]: 1000 nM
G2/M (K562 [4]): 10%
c.v (K562 [5]): 4.3
G1 (K562 [6]): 39%
S (K562 [8]): 52%

IC50 (K562 [1]): 3000 nM
Structure (SMILES): C=C1CCC[C@]2(C)C[C@H]3OC(=O)[C@@H](CN(C)C)[C@H]3C[C@@H]12

IC50 (K562 [1]): 5000 nM
Structure (SMILES): C=C1CCC[C@]2(C)C[C@H]3OC(=O)[C@@H](CN(CCC)CCC)[C@H]3C[C@@H]12

IC50 (K562 [1]): 24000 nM
Structure (SMILES): C=C1CCC[C@]2(C)C[C@H]3OC(=O)[C@@H](CNC)[C@H]3C[C@@H]12

IC50 (K562 [1]): 3000 nM
Structure (SMILES): C=C1CCC[C@]2(C)C[C@H]3OC(=O)[C@@H](CN(C)C(C)C(O)c4ccccc4)[C@H]3C[C@@H]12 (stereo partly specified)

IC50 (K562 [1]): 6000 nM
Structure (SMILES): C=C1CCC[C@]2(C)C[C@H]3OC(=O)[C@@H](CNCCCN(C)C)[C@H]3C[C@@H]12

IC50 (K562 [1]): 2000 nM
Structure (SMILES): C[C@H]1CCC[C@]2(C)C[C@H]3OC(=O)[C@@H](CN(C)C)[C@H]3C=C12

IC50 (K562 [1]): 700 nM
Structure (SMILES): CCN(CC)C[C@@H]1C(=O)O[C@@H]2C[C@@]3(C)CCC[C@H](C)C3=C[C@H]12
Activity (K562 [2]): 7.3%
G2/M (K562 [4]): 10%
c.v (K562 [5]): 7
G1 (K562 [6]): 38%
S (K562 [8]): 52%

IC50 (K562 [1]): 15000 nM
Structure (SMILES): C=C1CCC[C@]2(C)C[C@H]3OC(=O)[C@@H](CNCc4ccccc4)[C@H]3C[C@@H]12

IC50 (K562 [1]): 2000 nM
Structure (SMILES): C[C@H]1CCC[C@]2(C)C[C@H]3OC(=O)[C@@H](CN4CCCCC4)[C@H]3C=C12

IC50 (K562 [1]): 700 nM
Structure (SMILES): C=C1C(=O)O[C@@H]2C[C@@]3(C)CCC[C@H](C)C3=C[C@H]12 [HELENINE]
Activity (K562 [2]): 9.9%
G2/M (K562 [4]): 17%
c.v (K562 [5]): 3.4
growth inhibition (GI) (K562 [6]): 30%
S (K562 [8]): 53%

IC50 (COLO): 2100 nM
IC50 (A549): 600 nM
IC50 (P388): 400 nM
IC50 (NCI-H460): 600 nM
IC50 (WiDr): 1400 nM
IC50 (MCF7): 600 nM
IC50 (BT-20): 1200 nM
IC50 (K562 [1]): 1200 nM
IC50 (NCI-H520): 900 nM
IC50 (K562 [7]): 1200 nM
Structure (SMILES): C=C1C(=O)O[C@@H]2C[C@@]3(C)CCCC(=C)[C@@H]3C[C@H]12 [ISOALANTOLACTONE]
Activity (K562 [2]): 8.2%
IC50 [3]: 1100 nM
G2/M (K562 [4]): 12%
c.v (K562 [5]): 3.2
growth inhibition (GI) (K562 [6]): 38%
S (K562 [8]): 50%
